Laboratory results published in patent US20230263786A1, “MODULATION OF DRUG-DRUG INTERACTIONS OF VADADUSTAT” (Akebia Therapeutics, Inc., priority 2020, published 2023).
pIC50: −log10 of the molar value. Where two headings read alike, the source gives them in different places.

Legend:
human PHD3 = human PHD3 (Homo sapiens, UniProt Q9H6Z9); test: PHD inhibitory action, PHD3; type: biochemical; conditions: in vitro
[1] = [14C]-labeled Compound 1 650 mg metabolism and excretion; type: in vivo, human
Excerpt: Compound 1 is metabolized via UGT, mainly producing O-glucuronide conjugates.
The urinary excretion rate of this drug and acyl glucuronide is less than 1% of the total radioactivity.

CYP2C9 = CYP2C9 (Homo sapiens, UniProt P11712); test: CYP2C9 inhibition in vitro; type: in vitro ADME
UGT1A1 = biological target: T1, UGT1A1 (Homo sapiens, UniProt P22309); test: UGT1A1 inhibition in vitro; type: in vitro ADME
T1 sequence (P22309 26-533): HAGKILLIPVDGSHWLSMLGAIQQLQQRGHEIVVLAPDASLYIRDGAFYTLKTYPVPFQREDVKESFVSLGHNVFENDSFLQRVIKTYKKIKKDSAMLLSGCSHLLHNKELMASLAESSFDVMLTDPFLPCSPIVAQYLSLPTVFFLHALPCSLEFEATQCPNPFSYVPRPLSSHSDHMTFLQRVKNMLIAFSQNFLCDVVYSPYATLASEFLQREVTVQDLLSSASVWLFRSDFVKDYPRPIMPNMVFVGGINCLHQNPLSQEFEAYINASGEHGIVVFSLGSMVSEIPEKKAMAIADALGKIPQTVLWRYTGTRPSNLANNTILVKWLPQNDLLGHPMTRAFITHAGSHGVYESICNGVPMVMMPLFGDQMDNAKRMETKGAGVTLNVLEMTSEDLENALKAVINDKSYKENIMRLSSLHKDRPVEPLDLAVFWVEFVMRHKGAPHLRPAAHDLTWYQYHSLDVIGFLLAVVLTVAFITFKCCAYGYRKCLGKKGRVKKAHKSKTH

[2] = Phase 1 oral iron interaction study, Cohort 1 (after meal): sodium ferrous citrate, ferric citrate hydrate; type: in vivo, human; conditions: for AUC(0-inf) / AUC(0-t) / Cmax / half-life: male, human, plasma, oral; for AUC(0-inf): read-out: AUC(0-inf), LS geometric mean; for AUC(0-t): read-out: AUC(0-last), LS geometric mean; for Cmax: read-out: Cmax, LS geometric mean; for half-life: read-out: t1/2, LS geometric mean (converted)
Excerpt: The study included 3 periods as follow: • Screening: performed within 4 weeks before the day of administration of the study drug. • Evaluation period: Cohort 1 was confined to the study site for 10-night, 11-day. Cohort 2 and Cohort 3 were confined to the study site for 7 nights and 8 days. • Post-administration tests: performed 3 days after administration of the last dose of the study drug.
In Cohort 1, 21 subjects were further randomized into 3 groups (7 subjects per group) and the evaluation period was divided into 3 periods during the study:
(§1) Administration of vadadustat tablets alone: after fasting for at least 10 hours, subjects would eat breakfast over a period of 10 minutes, then immediately after finishing the meal (5 minutes after finishing the meal), 1 vadadustat tablet (150 mg) would be taken orally with 200 mL of water (extra water may be drunk if more is needed when taking the tablet, and the extra volume would be recorded). After breakfast, subjects would fast until the end of the collection of blood samples at 4 hours after administration of the study drug. Subjects would eat lunch over a period of 20 minutes after blood samples were collected at 4 hours after administration of the study drug. After lunch, subjects would fast until dinner, when they would eat dinner over a period of 20 minutes at 10 hours after administration of the study drug. Subjects would fast from dinner until breakfast the next morning.
as §1, with “and sodium ferrous citrate:” for “alone:”, “mg) and 4 tablets of sodium ferrous citrate (containing 200 mg of iron)” for “mg)”, “tablets,” for “tablet,”
Administration of vadadustat tablets and ferric citrate hydrate: after fasting for at least 10 hours, subjects would eat breakfast over a period of 10 minutes, then immediately after finishing the meal (5 minutes after finishing the meal), 1 vadadustat tablet (150 mg) and 8 tablets of ferric citrate hydrate (containing 2000 mg of ferric citrate) would be taken orally with 200 mL of water (extra water may be drunk if more is needed when taking the tablets, and the extra volume will be recorded). After breakfast, subjects would fast until the end of the collection of blood samples at 4 hours after administration of the study drug. After collection of blood samples at 4 hours after administration of the study drug, subjects would eat lunch over a period of 20 minutes, then immediately after finishing the meal, 8 tablets of ferric citrate hydrate (containing 2000 mg of ferric citrate) would be taken orally with 200 mL of water (extra water may be drunk if more is needed when taking the tablet, and the extra volume would be recorded). Subjects would fast from lunch to before dinner, and at 10 hours after administration of the study drug, subjects will eat dinner over a period of 20 minutes, then immediately after finishing the meal, 8 tablets of ferric citrate hydrate (containing 2000 mg of ferric citrate) would be taken orally with 200 mL of water (extra water may be drunk if more is needed when taking the tablets, and the extra volume would be recorded). Subjects would fast from dinner until breakfast the next morning.

[3] = system: UGT1A1, UGT1A7, UGT1A8 and UGT1A9; test: UGT isoforms generating O-glucuronide in vitro; type: in vitro ADME, human
clinical = conditions: male, human, plasma, oral, 450 mg
Procedure: Pharmacokinetics. […] The ratio of metabolite to parent was calculated for each glucuronide metabolite for AUC(0-t); and AUC(0-inf) and Cmax.
Comparative Bioavailability. […] Factors incorporated in the model included: Sequence, Subject (Sequence), Period, and Treatment.
Treatment of Subjects. […] All subjects are dosed on the same day for Day 1 of Confinement Period 1, and are crossed over to the alternate treatment and are dosed on the same day for Day 1 of Confinement Period 2. Both treatments are administered in a fasted state, and a four-day Washout Period separates each Confinement Period.

[4] = 150 mg with ferric citrate hydrate (2000 mg ferric citrate)
[5] = 150 mg with sodium ferrous citrate (200 mg iron)
[6] = 150 mg, Compound 1 150 mg alone
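For Tmax in this document: crossover in fasted human subjects with four-day washout between periods, plasma glucuronide metabolite pharmacokinetics, ratios computed as metabolite over parent for AUC and Cmax.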

Chain of CYP2C9 (P11712 whole entry): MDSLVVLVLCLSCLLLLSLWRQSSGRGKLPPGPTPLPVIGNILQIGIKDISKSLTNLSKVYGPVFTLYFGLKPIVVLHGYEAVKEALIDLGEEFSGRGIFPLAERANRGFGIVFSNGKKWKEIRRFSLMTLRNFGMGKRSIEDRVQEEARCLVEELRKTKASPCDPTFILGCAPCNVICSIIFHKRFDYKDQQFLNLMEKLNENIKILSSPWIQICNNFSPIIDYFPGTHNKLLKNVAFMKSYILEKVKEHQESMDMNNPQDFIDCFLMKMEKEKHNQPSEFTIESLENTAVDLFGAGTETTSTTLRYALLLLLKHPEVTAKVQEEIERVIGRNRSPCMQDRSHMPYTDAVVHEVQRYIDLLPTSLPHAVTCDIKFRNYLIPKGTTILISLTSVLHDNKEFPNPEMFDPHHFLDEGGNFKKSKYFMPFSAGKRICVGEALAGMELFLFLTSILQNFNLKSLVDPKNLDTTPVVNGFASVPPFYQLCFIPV
Chain of human PHD3 (Q9H6Z9 whole entry): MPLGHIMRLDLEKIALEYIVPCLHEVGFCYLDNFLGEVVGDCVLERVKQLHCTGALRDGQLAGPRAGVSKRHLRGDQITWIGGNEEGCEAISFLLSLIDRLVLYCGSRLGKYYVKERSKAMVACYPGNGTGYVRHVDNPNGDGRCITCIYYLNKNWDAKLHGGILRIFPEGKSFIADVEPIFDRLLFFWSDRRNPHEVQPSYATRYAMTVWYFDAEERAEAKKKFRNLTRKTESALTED

SMILES: O=C(O)CNC(=O)c1ncc(-c2cccc(Cl)c2)cc1O [Compound 1, {[5-(3-chlorophenyl)-3-hydroxypyridine-2-carbonyl]amino}acetic acid]
- pIC50 (human PHD3): 8.12
- total radioactivity administered found in urine ([1]; single 650 mg [14C]-labeled, by 72 hours after administration): 58.9%
- share of the total radioactivity (AUC0-∞) in plasma ([1]; single oral 650 mg [14C]-labeled Compound 1, healthy adult males): 75%
- inhibitory effect on CYP2C9 (CYP2C9): inhibitory effect
- inhibitory effect on UGT1A1 (UGT1A1): inhibitory effect
- Kel, LS geometric mean [2, 4]: 0.16 h⁻¹
- Kel, LS geometric mean [2, 5]: 0.13 h⁻¹
- Kel, LS geometric mean ([2]; Compound 1 150 mg alone): 0.13 h⁻¹
- AUC(0-inf) [2, 4]: 32400 ng·h/mL
- AUC(0-t) [2, 4]: 31100 ng·h/mL
- Cmax [2, 4]: 5180 ng/mL
- half-life [2, 4]: 256 min
- AUC(0-inf) [2, 5]: 46600 ng·h/mL
- AUC(0-t) [2, 5]: 44400 ng·h/mL
- Cmax [2, 5]: 6960 ng/mL
- half-life [2, 5]: 320 min
- AUC(0-inf) [2, 6]: 104000 ng·h/mL
- AUC(0-t) [2, 6]: 99200 ng·h/mL
- Cmax [2, 6]: 14300 ng/mL
- half-life [2, 6]: 319 min
- UGT isoforms involved in the generation of O-glucuronide [3]: UGT1A1, UGT1A7, UGT1A8 and UGT1A9
- AUC(0-inf) (clinical): 263 µg·h/mL
- AUC(0-t) (clinical): 253 µg·h/mL
- Cmax (clinical): 45300 ng/mL
- Tmax (clinical): 3 h
